One block for each molecule: values may come before it.
System: 242566-281-R-J2-PDC complex spheroid viability
Assay: Anticancer human tumor 242566-281-R-J2-PDC patient-derived pancreatic carcinoma cell line growth inhibition [RAS]
Settings: for viability, T/C: stronger effect = lower value
Method in brief: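 Tumour cells grown as complex spheroids with HUVEC endothelial cells and mesenchymal stem cells, treated with RAS pathway inhibitor combinations. Each agent spans half-log steps from near clinical Cmax, or 10 microM where Cmax is unknown.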

[1] = curve of first compound, second compound 0.000949 µM
[2] = curve of first compound, second compound 0.003 µM
[3] = curve of first compound, second compound 0.00949 µM
[4] = curve of first compound, second compound 0.03 µM
[5] = curve of first compound, second compound 0.0949 µM
[6] = curve of first compound, second compound 0.3 µM
[7] = second compound 0.000949 µM, first compound 0.00316 µM
[8] = second compound 0.000949 µM, first compound 0.01 µM
[9] = second compound 0.000949 µM, first compound 0.0316 µM
[10] = second compound 0.000949 µM, first compound 0.1 µM
[11] = second compound 0.000949 µM, first compound 0.316 µM
[12] = second compound 0.000949 µM, first compound 1 µM
[13] = second compound 0.003 µM, first compound 0.00316 µM
[14] = second compound 0.003 µM, first compound 0.01 µM
[15] = second compound 0.003 µM, first compound 0.0316 µM
[16] = second compound 0.003 µM, first compound 0.1 µM
[17] = second compound 0.003 µM, first compound 0.316 µM
[18] = second compound 0.003 µM, first compound 1 µM
[19] = second compound 0.00949 µM, first compound 0.00316 µM
[20] = second compound 0.00949 µM, first compound 0.01 µM
[21] = second compound 0.00949 µM, first compound 0.0316 µM
[22] = second compound 0.00949 µM, first compound 0.1 µM
[23] = second compound 0.00949 µM, first compound 0.316 µM
[24] = second compound 0.00949 µM, first compound 1 µM
[25] = second compound 0.03 µM, first compound 0.00316 µM
[26] = second compound 0.03 µM, first compound 0.01 µM
[27] = second compound 0.03 µM, first compound 0.0316 µM
[28] = second compound 0.03 µM, first compound 0.1 µM
[29] = second compound 0.03 µM, first compound 0.316 µM
[30] = second compound 0.03 µM, first compound 1 µM
[31] = second compound 0.0949 µM, first compound 0.00316 µM
[32] = second compound 0.0949 µM, first compound 0.01 µM
[33] = second compound 0.0949 µM, first compound 0.0316 µM
[34] = second compound 0.0949 µM, first compound 0.1 µM
[35] = second compound 0.0949 µM, first compound 0.316 µM
[36] = second compound 0.0949 µM, first compound 1 µM
[37] = second compound 0.3 µM, first compound 0.00316 µM
[38] = second compound 0.3 µM, first compound 0.01 µM
[39] = second compound 0.3 µM, first compound 0.0316 µM
[40] = second compound 0.3 µM, first compound 0.1 µM
[41] = second compound 0.3 µM, first compound 0.316 µM
[42] = second compound 0.3 µM, first compound 1 µM
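Note: spheroids exposed to compound for 7 days before readout.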
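Throughout, for viability, T/C: 100% = DMSO vehicle control wells.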

SMILES: CCN1CCN(Cc2ccc(Nc3ncc(F)c(-c4cc(F)c5nc(C)n(C(C)C)c5c4)n3)nc2)CC1 + CCn1c(-c2cc(N3CCN(C)CC3)cnc2C(C)OC)c2c3cc(ccc31)-c1csc(n1)CC(NC(=O)C1CC1C)C(=O)N1CCCC(N1)C(=O)OCC(C)(C)C2
IC50 [1]: > 1000 nM
IC50 [2]: > 1000 nM
IC50 [3]: < 3.16 nM
IC50 [4]: < 3.16 nM
IC50 [5]: < 3.16 nM
IC50 [6]: < 3.16 nM
viability, T/C [7]: 88.6%
viability, T/C [8]: 88.5%
viability, T/C [9]: 69.9%
viability, T/C [10]: 76%
viability, T/C [11]: 90.5%
viability, T/C [12]: 83.7%
viability, T/C [13]: 81.9%
viability, T/C [14]: 67.8%
viability, T/C [15]: 58.8%
viability, T/C [16]: 63.8%
viability, T/C [17]: 71.8%
viability, T/C [18]: 56.1%
viability, T/C [19]: 53.8%
viability, T/C [20]: 38.4%
viability, T/C [21]: 43.2%
viability, T/C [22]: 39.6%
viability, T/C [23]: 42.9%
viability, T/C [24]: 48.1%
viability, T/C [25]: 27.8%
viability, T/C [26]: 31.3%
viability, T/C [27]: 29.7%
viability, T/C [28]: 30.9%
viability, T/C [29]: 29.2%
viability, T/C [30]: 40.9%
viability, T/C [31]: 22%
viability, T/C [32]: 22.1%
viability, T/C [33]: 20.8%
viability, T/C [34]: 22%
viability, T/C [35]: 22%
viability, T/C [36]: 31.6%
viability, T/C [37]: 19.2%
viability, T/C [38]: 18.9%
viability, T/C [39]: 19.1%
viability, T/C [40]: 20.3%
viability, T/C [41]: 22.4%
viability, T/C [42]: 32.7%

SMILES: CCn1c(-c2cc(N3CCN(C)CC3)cnc2C(C)OC)c2c3cc(ccc31)-c1csc(n1)CC(NC(=O)C1CC1C)C(=O)N1CCCC(N1)C(=O)OCC(C)(C)C2 (centres undefined)
viability, T/C (compound 0.000949 µM): 93.7% [middle of 8 runs]
viability, T/C (compound 0.003 µM): 76.4% [middle of 8 runs]
viability, T/C (compound 0.00949 µM): 49% [middle of 8 runs]
viability, T/C (compound 0.03 µM): 31.3% [middle of 8 runs]
viability, T/C (compound 0.0949 µM): 23.8% [middle of 8 runs]
viability, T/C (compound 0.3 µM): 21.6% [middle of 8 runs]
IC50 (compound alone, run of 07/09/2024): 9.34 nM [middle of 8 runs]

SMILES: CC(C)NCC(C(=O)N1CCN(c2ncnc3c2C(C)CC3O)CC1)c1ccc(Cl)cc1 (centres undefined)
viability, T/C (compound 0.0316 µM): 104% [middle of 4 runs]
viability, T/C (compound 0.1 µM): 106% [middle of 4 runs]
viability, T/C (compound 0.316 µM): 103% [middle of 4 runs]
viability, T/C (compound 1 µM): 101% [middle of 4 runs]
IC50 (curve of compound): > 10000 nM

SMILES: CCC(CC)c1cc(NC2CCC(N)C2)n2nccc2n1 (centres undefined)
viability, T/C (compound 0.0316 µM): 105% [middle of 4 runs]
viability, T/C (compound 0.1 µM): 119% [middle of 4 runs]
viability, T/C (compound 0.316 µM): 105% [middle of 4 runs]
viability, T/C (compound 1 µM): 114% [middle of 4 runs]
viability, T/C (compound 10 µM): 2.75% [middle of 4 runs]
IC50 (curve of compound): 4.51 µM [middle of 4 runs]

Now from value to molecule, other results behind:

IC50 [1]: 35.4 nM
IC50 [2]: 12.2 nM
IC50 [3]: < 3.16 nM
IC50 [4]: < 3.16 nM
IC50 [5]: < 3.16 nM
IC50 [6]: < 3.16 nM
SMILES: O=C(c1ccc(F)c(F)c1Nc1ccc(I)cc1F)N1CC(O)([C@@H]2CCCCN2)C1 + CCn1c(-c2cc(N3CCN(C)CC3)cnc2C(C)OC)c2c3cc(ccc31)-c1csc(n1)CC(NC(=O)C1CC1C)C(=O)N1CCCC(N1)C(=O)OCC(C)(C)C2
viability, T/C [7]: 89.8%
viability, T/C [8]: 71.1%
viability, T/C [9]: 44.3%
viability, T/C [10]: 42.3%
viability, T/C [11]: 29%
viability, T/C [12]: 16.6%
viability, T/C [13]: 72.4%
viability, T/C [14]: 47.5%
viability, T/C [15]: 39.8%
viability, T/C [16]: 32.4%
viability, T/C [17]: 23.1%
viability, T/C [18]: 15.4%
viability, T/C [19]: 39.9%
viability, T/C [20]: 30.8%
viability, T/C [21]: 30.6%
viability, T/C [22]: 21.9%
viability, T/C [23]: 15.2%
viability, T/C [24]: 16.2%
viability, T/C [25]: 24.9%
viability, T/C [26]: 21.4%
viability, T/C [27]: 19.8%
viability, T/C [28]: 18%
viability, T/C [29]: 14.5%
viability, T/C [30]: 14%
viability, T/C [31]: 21.9%
viability, T/C [32]: 17.8%
viability, T/C [33]: 17.6%
viability, T/C [34]: 14.1%
viability, T/C [35]: 11.2%
viability, T/C [36]: 12.3%
viability, T/C [37]: 17.4%
viability, T/C [38]: 16.4%
viability, T/C [39]: 13.3%
viability, T/C [40]: 14.1%
viability, T/C [41]: 10.9%
viability, T/C [42]: 11.3%

IC50 (curve of first compound, second compound 0.0316 µM): 608 nM
IC50 (curve of first compound, second compound 0.1 µM): 336 nM
IC50 (curve of first compound, second compound 0.316 µM): 184 nM
IC50 (curve of first compound, second compound 1 µM): 61.2 nM
IC50 (curve of first compound, second compound 3.16 µM): < 31.6 nM
IC50 (curve of first compound, second compound 10 µM): < 31.6 nM
SMILES: Cc1nc(N2CCC3(CC2)COC(C)C3N)c(CO)nc1Sc1ccnc(N)c1Cl (centres undefined) + C#Cc1c(F)ccc2cc(O)cc(-c3ncc4c(N5CC6CCC(C5)N6)nc(OCC56CCCN5CC(F)C6)nc4c3F)c12
viability, T/C (second compound 0.0316 µM, first compound 0.0316 µM): 69.6%
viability, T/C (second compound 0.0316 µM, first compound 0.1 µM): 81%
viability, T/C (second compound 0.0316 µM, first compound 0.316 µM): 62.2%
viability, T/C (second compound 0.0316 µM, first compound 1 µM): 40.9%
viability, T/C (second compound 0.0316 µM, first compound 3.16 µM): 37.8%
viability, T/C (second compound 0.0316 µM, first compound 10 µM): 43.5%
viability, T/C (second compound 0.1 µM, first compound 0.0316 µM): 80.3%
viability, T/C (second compound 0.1 µM, first compound 0.1 µM): 65.8%
viability, T/C (second compound 0.1 µM, first compound 0.316 µM): 51.1%
viability, T/C (second compound 0.1 µM, first compound 1 µM): 43%
viability, T/C (second compound 0.1 µM, first compound 3.16 µM): 34.5%
viability, T/C (second compound 0.1 µM, first compound 10 µM): 43%
viability, T/C (second compound 0.316 µM, first compound 0.0316 µM): 69.9%
viability, T/C (second compound 0.316 µM, first compound 0.1 µM): 54.3%
viability, T/C (second compound 0.316 µM, first compound 0.316 µM): 47.1%
viability, T/C (second compound 0.316 µM, first compound 1 µM): 38.9%
viability, T/C (second compound 0.316 µM, first compound 3.16 µM): 37%
viability, T/C (second compound 0.316 µM, first compound 10 µM): 36.5%
viability, T/C (second compound 1 µM, first compound 0.0316 µM): 58.1%
viability, T/C (second compound 1 µM, first compound 0.1 µM): 45.8%
viability, T/C (second compound 1 µM, first compound 0.316 µM): 36.6%
viability, T/C (second compound 1 µM, first compound 1 µM): 34.6%
viability, T/C (second compound 1 µM, first compound 3.16 µM): 31.2%
viability, T/C (second compound 1 µM, first compound 10 µM): 41.1%
viability, T/C (second compound 3.16 µM, first compound 0.0316 µM): 48.4%
viability, T/C (second compound 3.16 µM, first compound 0.1 µM): 49.9%
viability, T/C (second compound 3.16 µM, first compound 0.316 µM): 40.9%
viability, T/C (second compound 3.16 µM, first compound 1 µM): 35.1%
viability, T/C (second compound 3.16 µM, first compound 3.16 µM): 42.8%
viability, T/C (second compound 3.16 µM, first compound 10 µM): 44.5%
viability, T/C (second compound 10 µM, first compound 0.0316 µM): 50%
viability, T/C (second compound 10 µM, first compound 0.1 µM): 46.6%
viability, T/C (second compound 10 µM, first compound 0.316 µM): 39.4%
viability, T/C (second compound 10 µM, first compound 1 µM): 42.9%
viability, T/C (second compound 10 µM, first compound 3.16 µM): 41.4%
viability, T/C (second compound 10 µM, first compound 10 µM): 38.4%

Reference: PubChem BioAssay AID2060910 (Molecular Pharmacology Branch, DTP, NCI, 2025)
